In patent US10945972B2, “Particulate materials” (Nektar Therapeutics, priority 2002, dated 2021):
Counter-ions that a name gives are not always drawn. One block for each compound: values may come before it.

Legend:
Assay type in all cases: physicochemical
[1] = Particle size by Helos/Rodos laser diffraction (Example 1); conditions: geometric projection-equivalent volume mean diameter
Experimental: (§1) PSD measurements were performed using firstly, AEROSIZER® time-of-flight instrument equipped with AERO-[…]® (TSI Inc., Minneapolis. USA) and secondly, laser diffraction sensor Helos with dry-powder air-dispersion system Rodos (Sympatec GmbH. Germany). The volume mean particle diameter, VMD, was obtained for both instruments using software options. In the general case of non-spherical particles, these instruments cannot provide the exact value of VMD, however, the time-of-flight technique gives an aerodynamic-equivalent particle diameter, whereas the laser diffraction method provides the geometric projection-equivalent diameter. These diameters afford the complementary information on PSD and therefore can be used for comparative size analysis.

[2] = Inverse gas chromatography surface energy (Example 1); conditions: 303K; for ΔGA (kJ/mol) Chloroform: probe chloroform; for ΔGA (kJ/mol) Toluene: probe toluene; for ΔGA (kJ/mol) Acetone: probe acetone; for ΔGA (kJ/mol) Dioxane: probe dioxane; for ΔGA (kJ/mol) Ethyl acetate: probe ethyl acetate
Description: For TBS and FHBr powders, IGC was done using a Hewlett Packard Series 6890 instrument which was specifically modified for IGC measurements by Surface Measurement Systems Ltd (Manchester, UK). The IGC method is described in detail by Tong et al. 2001. (Tong H. H. Y., B. Y. Shekunov, P. York, A. H. L. Chow, 2001. Pharm. Res. 18, 852.) Triplicate measurements in separate packed columns were made. […] The γS^D and ΔGA values were obtained at 303K.

[3] = Particle size by AeroSizer time-of-flight (Example 1); conditions: aerodynamic-equivalent volume mean diameter
Experimental: as §1

[4] = Laser diffraction HELOS/RODOS of TBS (Example 8); conditions: for Sympatec D4, 3 (μm): 2 bar
Experimental: A small amount of TBS powder was analysed using a laser diffraction RODOS/VIBRI dispersing system (HELOS/RODOS, Sympatec GmbH, Clausthal-Zellerfeld, Germany). The instrument consisted of a laser sensor HELOS and a RODOS dry-powder air-dispersion system (Sympatec GmbH, Clausthal-Zellerfeld, Germany). Different measurement ranges of the laser sensor were provided by interchangeable objectives R1 (0.1-35 μm) and R2 (0.25-87.5 μm). The rate of powder dispersion was controlled by adjusting the pressure of the compressed air flow. A pressure of 2 bar was sufficient to achieve deagglomeration of primary particles without attrition.

[5] = Inverse gas chromatography of TBS (Example 8)
Experimental: An empty GC column was uniformly packed with the powder of interest (TBS). Pre-silanized commercially available straight glass columns of 30 cm length with a 3 mm internal diameter were used in this investigation. The silanation procedure was necessary to minimize active sites on the inner glass surfaces, which strongly interact with polar probes. Each column was packed at the detector end with a small amount of silanised glass wool, was clipped to a stand and powder was added through a glass funnel with the aid of a mechanical column packer (tapping) to improve powder flow and remove any air gaps. […] A. Hewlett Packard 6890 Series Gas Chromatograph (GC) (Hewlett Packard, Penna, USA) oven equipped with an autosampler was used to control the solvent temperature. The 6890 GC data acquisition system was used to record data from a thermal conductivity detector (TCD) and flame ionisation detector (FID) with the instrument modified for IGC by Surface Measurement Systems (SMS), Manchester, UK. The combination of detectors allowed sensitive analysis of both organic vapour elution and water (although RH was not raised above 0% for these experiments).
The whole system was fully automated by control software (SMS iGC Controller v1.3) and the data analyzed using SMS iGC Analysis macros. Prior to analysis, each column was equilibrated at 30° C. and 0% relative humidity (RH) for 5 hours by passing dry helium gas through the column. Helium gas was also used as the carrier gas. Hydrogen and compressed air flow rates were set at 40 and 450 ml min respectively for the FID. The chromatograph injection port was maintained at 80° C., TCD detector at 150° C. and the FID detector at 150° C. Column temperature was set at 30° C. throughout analysis. Data were obtained by flowing helium gas at 10 ml min^−1 through the sinalized glass column packed with a known weight of powdered material and injecting small amounts (concentration P/Po=0.05) of a range of probe vapors with different polarities. The retention times of the probes were measured using SMS iGC Controller v1.3 software, at infinite dilution or near zero surface coverage (equivalent to 10^−4-10^−7 μl of liquid) where retention is independent of the quantity of probe injected. For each sample, two columns were prepared and analysed by employing a method based on standard settings, which allows the precise control and measurement of experimental variables. This is essential in producing meaningful results. The data were used to calculate the dispersive and non-dispersive forces acting at TBS particle surfaces using the method developed by Schultz and co-workers (J. Schultz, L. Lavielle and C. Martin. The role of the interface in carbon fibre-epoxy composites, J. Adhesion, 23, 45-60 (1987)).

[6] = Differential scanning calorimetry (Example 8); conditions: DSC, 10° C. min^−1
Experimental: Prior to sample analysis, a baseline was obtained which was used as a background. […] Temperature and enthalpy were calibrated with the standard materials indium (melting point=156.6° C.) and zinc (melting point=419.5° C.). Samples (1-10) were accurately weighed into pierced, crimped aluminium pans and heated at 10° C. min^−1 over a heating range of 25-290° C. under a nitrogen purge. A chiller unit was used in conjunction with the calorimeter to attain the lower temperatures.

[7] = AEROSIZER time-of-flight of TBS (Example 8)
Experimental: The TBS samples were also analysed using an AEROSIZER™ (Amherst Process Instruments, Amherst, Mass., USA), provided with pulse jet disperser, the AERODISPERSER™, to introduce the powders to the instrument. The measurement range of the AEROSIZER™ is nominally from 0.2 to 200 μm of aerodynamic diameter with the standard 750 μm diameter tapered nozzle. The micronized and SEDS™ TBS samples were analyzed for 300 seconds in triplicate using normal deagglomeration conditions, feed rate (5000 particles per second) and medium shear force (0.5 psi).

[8] = Isothermal microcalorimetry, TAM with RH ramp (Example 8); conditions: 25° C., RH ramp 0 to 90% at 3% RH/hr
Experimental: A Thermal Activity Monitor (TAM, model 2277; Thermometric A B, Jrflla, Sweden) was used to measure the calorimetric heat flow (μW) vs. % RH profile of each sample. A RH-perfusion cell (Model 2255-120) accessory for the TAM was used to control RH within the sample vessel. The carrier gas, dry N2, was flowed at a constant rate (1.48 cm^3/min). All experiments were performed at 25° C. About 100 to 105 mg accurately weighed of each powder were placed in a stainless steel ampoule, attached to the RH perfusion cell, and then dried under 0% RH until a stable heat flow signal was reached (e.g., a signal within the range of −1 to +1 μW). The RH was then increased in a linear ramp from 0 to 90% over the following 30 hours (i.e., 3% RH/hr). The heat flow arising from interactions of water vapor with the solid sample was measured as a function of time. Since RH changed with time in a linear fashion, the heat flow was also known as a function of RH.
The TAM measures the total heat flow in power, P, produced from either a physical or chemical reaction. In this study, the calorimetric power is proportional to the rate of moisture sorption or desorption, crystallization, and/or other processes. Exothermic events are measured as a deflection in the positive y-axis direction. Although crystallization is an exothermic process, it can be observed as a net endothermic process. During crystallization, there is an exotherm due to crystallization and a simultaneous endotherm due to desorption of previously sorbed moisture. The TAM profile gives the resultant of these processes.

[9] = AEROFLOW powder avalanching (Example 8); conditions: listed as Micronized
Experimental: An AEROFLOW™ powder avalanching apparatus (Amherst Process Instruments, API, Amherst, USA) was employed to analyze the dynamic avalanching behaviour of micronized and SC processed TBS samples. The AEROFLOW™ apparatus consists of a transparent rotating drum with a port at the front. A white light source is positioned in front of the drum and a masked array of photocells is behind the drum. To measure avalanching, 50 ml of the drug powder was added to the drum, which is about 15% of its total volume to ensure good powder mixing during the operation. As the drum rotates, the powder bed is carried upwards until an unstable state is reached and an avalanche occurs.
The time between successive avalanches was recorded by the projection of the light beam through the drum onto the photocell array. The photocells generated a voltage dependent on the amount of light falling on the cells and the area of unmasked photocells shielded from the light source by the powder. The voltage output (transmitted light intensity) was recorded by a computer, which translates the output as powder movement using a technique disclosed in B. H. Kaye. Characterizing the flowability of a powder using the concepts of fractal geometry and chaos theory, Part. Part. Charact. 14: 53-66 (1997). Each TBS sample was tested in duplicate and mean avalanche time and irregularity (scatter) of avalanches were recorded.

[10] = AFM adhesion force of particles (Example 10); conditions: for adhesion force per unit area: following correction for surface area; for initial adhesion force for individual particles: in 2H 3H perfluoropentane
Experimental: The example assessed the force of adhesion of particles of salbutamol sulfate produced using a SEDS™ processes compared to the same compound in micronized form. Conventional AFM analysis was used. Particles of the samples were mounted onto AFM probes and the adhesion force per unit area to a freshly cleaved highly oriented pyrolytic graphite substrate (HOP G, Agar Scientific, Essex, UK) in a liquid (2H 3H perfluoropentane) environment was determined. The contact area involved in the interaction was assessed and related to the force measurements.

[11] = listed as micronized terbutaline sulphate

Compound: CC(Cc1ccc(O)cc1)NCC(O)c1cc(O)cc(O)c1 (stereo not drawn) [FHBr Micronised, fenoterol hydrobromide, reference compound]
VMD (μm) (laser diffraction) ([1]; hydrobromide): 2.34 μm
γs^D (mJ/m^2) ([2]; hydrobromide): 48.53 mJ/m^2
ΔGA (kJ/mol) Chloroform ([2]; hydrobromide): 0.69 kJ/mol
ΔGA (kJ/mol) Toluene ([2]; hydrobromide): 4.77 kJ/mol
VMD (μm) (Time of flight) [3]: 1.7 μm

Compound: CC(Cc1ccc(O)cc1)NCC(O)c1cc(O)cc(O)c1 (stereo not drawn) [FHBr SEDS, fenoterol hydrobromide]
VMD (μm) (laser diffraction) ([1]; hydrobromide): 3.55 μm
γs^D (mJ/m^2) ([2]; hydrobromide): 49.87 mJ/m^2
ΔGA (kJ/mol) Acetone [2]: 13.15 kJ/mol
ΔGA (kJ/mol) Chloroform ([2]; hydrobromide): 0.63 kJ/mol
ΔGA (kJ/mol) Dioxane [2]: 15.32 kJ/mol
ΔGA (kJ/mol) Ethyl acetate [2]: 17.48 kJ/mol
ΔGA (kJ/mol) Toluene ([2]; hydrobromide): 3.86 kJ/mol
VMD (μm) (Time of flight) [3]: 1.7 μm

Sympatec D4, 3 (μm) [4]: 3.22 μm
KA [5]: 0.761
γs^D mJm^−2 ([5]; 30° C., 0% RH): 57.37 mJm^−2
−ΔGA^SP (kJ/mol) Acetone ([5]; probe acetone): 13.41 kJ/mol
−ΔGA^SP (kJ/mol) Ethyl acetate ([5]; probe ethyl acetate): 16.65 kJ/mol
−ΔGA^SP (kJ/mol) Toluene ([5]; probe toluene): 3.66 kJ/mol
Enthalpy of Fusion [6]: 127.12 J/g
Enthalpy of Fusion ([6]; listed as TBS1): 127.12 J/g
Aerosizer D4, 3 (μm) [7]: 3.31 μm
Compound: CC(C)(C)NCC(O)c1cc(O)cc(O)c1 (stereo not drawn) [TBS 1, terbutaline sulfate]
RH of thermal event in TAM profile [8]: No exothermic or endothermic peaks were observed

Sympatec D4, 3 (μm) [4]: 1.99 μm
Enthalpy of Fusion [6]: 31.35 J/g
Aerosizer D4, 3 (μm) [7]: 6.69 μm
Compound: CC(C)(C)NCC(O)c1cc(O)cc(O)c1 (stereo not drawn) [TBS 3, terbutaline sulfate]

Sympatec D4, 3 (μm) [4]: 4.75 μm
Enthalpy of Fusion [6]: 40.98 J/g
Aerosizer D4, 3 (μm) [7]: 15.53 μm
Compound: CC(C)(C)NCC(O)c1cc(O)cc(O)c1 (stereo not drawn) [TBS 4, terbutaline sulfate]

Sympatec D4, 3 (μm) [4]: 4.84 μm
Enthalpy of Fusion [6]: 57.69 J/g
Aerosizer D4, 3 (μm) [7]: 11.44 μm
Compound: CC(C)(C)NCC(O)c1cc(O)cc(O)c1 (stereo not drawn) [TBS 5, terbutaline sulfate]

Sympatec D4, 3 (μm) [4, 11]: 3.0 μm
particle size, 90% less than [4, 11]: less than 5 μm
VMD (μm) (laser diffraction) [1]: 3.04 μm
γs^D (mJ/m^2) [2]: 58.61 mJ/m^2
ΔGA (kJ/mol) Acetone [2]: 12.57 kJ/mol
ΔGA (kJ/mol) Chloroform [2]: 1.79 kJ/mol
ΔGA (kJ/mol) Dioxane [2]: 15.96 kJ/mol
ΔGA (kJ/mol) Ethyl acetate [2]: 16.01 kJ/mol
ΔGA (kJ/mol) Toluene [2]: 3.42 kJ/mol
Irregularity of flow ([9]; 100 sec/rev): 1.28 s
Mean time to avalanche ([9]; 100 sec/rev): 3.62 s
Irregularity of flow ([9]; 145 sec/rev): 2.39 s
Mean time to avalanche ([9]; 145 sec/rev): 5.72 s
VMD (μm) (Time of flight) [3]: 2.7 μm
RH of thermal event in TAM profile ([8]; listed as micronized TBS): about 79 % RH
Compound: CC(C)(C)NCC(O)c1cc(O)cc(O)c1 (stereo not drawn) [TSB Micronised, terbutaline sulphate, reference compound]

adhesion force per unit area [10]: 13.52 nN/μm^2
initial adhesion force for individual particles [10]: 4.21 nN
Compound: salbutamol sulfate [SEDS™ produced material]

adhesion force per unit area [10]: 100.91 nN/μm^2
initial adhesion force for individual particles [10]: 15.77 nN
Compound: salbutamol sulfate [micronized material, reference compound]
